Tests used:
Pyricularia oryzae = assay: microbe, parasite or virus in culture; assay type: cell-based; conditions: 0.016 ppm
[1] = test system: Alternaria solani, Qo inhibitor-resistant isolate containing F129L in the mitochondrial cytochrome b protein; assay: Micro titer plate test, activity against Alternaria solani causing early blight (ALTESO), F129L; assay type: cell-based; conditions: Table C11a; 0.016 ppm
[2] = test system: Phakopsora pachyrhizi, strain with amino acid substitution F129L in the mitochondrial cytochrome b protein; assay: Protective control of soybean rust on soybeans (PHAKPA P6); assay type: in vivo
[3] = test system: Phakopsora pachyrhizi, strain with amino acid substitution F129L in the mitochondrial cytochrome b protein; assay: Protective control of soybean rust on soybeans (PHAKPA P2); assay type: in vivo; conditions: for PHAKPA (F129L) Disease level (%), P2 at 16 ppm: Table C4, untreated >90
[4] = Table C2, protective, inoculation six days after spraying, 4 ppm, % diseased leaf area on soybean, untreated 99
[5] = Table 1, protective P2, 4 ppm, F129L strain
[6] = Table 1, protective P2, 16 ppm, F129L strain
[7] = Table 1, protective P6, 4 ppm, F129L strain
[8] = Table 1, protective P6, 16 ppm, F129L strain
[9] = Table C4, 16 ppm, untreated >85
[10] = protective P2, 16 ppm, soybean rust F129L strain
[11] = protective P6, 16 ppm, soybean rust F129L strain
[12] = protective P2, 4 ppm, soybean rust F129L strain
[13] = protective P6, 4 ppm, soybean rust F129L strain

| SMILES | % PHAKPA (F129L) Disease level, P2 at 4 ppm [3, 5] [%] | % PHAKPA (F129L) Disease level, P2 at 16 ppm [3, 6] [%] | % PHAKPA (F129L) Disease level, P6 at 4 ppm [2, 7] [%] | % PHAKPA (F129L) Disease level, P6 at 16 ppm [2, 8] [%] | also measured |
| --- | --- | --- | --- | --- | --- |
| CO/N=C(/C(=O)OC)c1cccc(C)c1CO/N=C(\C)c1cccc(OC(F)(F)F)c1 [drawing 939, reference compound] |  |  |  |  | Fungal growth (%) PYRIOR (Pyricularia oryzae; Table C8a): 100% |
| CNC(=O)/C(=N/OC)c1cccc(C)c1CO/N=C(\C)c1cccc(C(F)(F)F)c1 [Ex. 8] |  |  |  |  | Fungal growth (%) ALTESO F129L [1]: 52%; Fungal growth (%) PYRIOR (Pyricularia oryzae; Table C11a): 13%; PHAKPA (F129L) Disease level (%) P6 at 4 ppm ([2]; P6 at 4 ppm, untreated 75%): 1%; PHAKPA (F129L) Disease level (%) P6 at 4 ppm [2, 4]: 13% |
| CO/N=C(/C(=O)OC)c1cccc(C)c1CO/N=C(\C)c1ccc(-c2ccc(F)cc2)cc1C(F)(F)F [compound 425] | 27 | 28 | 53 | 40 |  |
| CO/C=C(/C(=O)OC)c1cccc(C)c1CO/N=C(\C)c1ccccc1C(F)(F)F [Ex. 244] | 14 | 0 | 15 | 2 | PHAKPA (F129L) Disease level (%), P2 at 16 ppm ([3]; 16 ppm): 0%; PHAKPA (F129L) Disease level (%), P6 at 16 ppm [2, 9]: 2% |
| CO/C=C(/C(=O)OC)c1cccc(C)c1CO/N=C(\C)c1ccc(Cl)c(F)c1OC(F)(F)F [compound 452] | 60 | 6 | 70 | 14 |  |
| CO/N=C(/C(=O)OC)c1cccc(C)c1CO/N=C(\C)c1ccc(-c2ccccc2)cc1C(F)(F)F [compound 414] | 53 | 9 | 53 | 15 |  |
| CO/C=C(/C(=O)OC)c1cccc(C)c1CO/N=C(\C)c1cccc(C(F)(F)F)c1 [Ex. 231] | 0 | 0 | 2 | 0 | PHAKPA (F129L) Disease level (%) P2 at 4 ppm ([3]; Table C2, protective, inoculation 2 days after spraying, 4 ppm, % diseased leaf area on soybean, untreated 100): 0%; PHAKPA (F129L) Disease level (%) P6 at 4 ppm [2, 4]: 2% |
| CO/C=C(/C(=O)OC)c1cccc(C)c1CO/N=C(\C)c1ccccc1OC(F)(F)F [compound 462] | 37 | 6 | 55 | 10 |  |
| COC=C(C(=O)OC)c1cccc(C)c1CON=C(C)c1ccc(F)c(F)c1OC(F)(F)F [compound 450] | 3 | 1 | 4 | 1 |  |
| CO/N=C(/C(=O)OC)c1cccc(C)c1CO/N=C(\C)c1cccc(C(F)(F)F)c1 [Ex. 9] |  |  |  |  | Fungal growth (%) PYRIOR (Pyricularia oryzae; Table C9): 38%; PHAKPA (F129L) Disease level (%) P2 at 4 ppm ([3]; Table C1, protective, inoculation 2 days after spraying, 4 ppm, % diseased leaf area on soybean): 35%; PHAKPA (F129L) Disease level (%) P2 at 4 ppm ([3]; Table C7b, 4 ppm, untreated 92): 6%; PHAKPA (F129L) Disease level (%), P6 at 16 ppm ([2]; P6 at 16 ppm, untreated 75%): 1%; PHAKPA (F129L) Disease level (%), P6 at 16 ppm ([2]; Table C1, protective, inoculation six days after spraying, 16 ppm, % diseased leaf area on soybean): 4% |
| CNC(=O)/C(=N/OC)c1cccc(C)c1CO/N=C(\C)c1c(F)cc(Br)cc1OC(F)(F)F [compound 355] | 34 | 7 | 48 | 4 |  |
| CO/C=C(/C(=O)OC)c1cccc(C)c1CO/N=C(\C)c1ccc(OC)cc1C(F)(F)F [compound 464] | 1 | 0 | 8 | 0 |  |
| CNC(=O)/C(=N/OC)c1cccc(OC)c1CO/N=C(\C)c1cccc(C(F)(F)F)c1 [compound 461] | 26 | 2 | 52 | 6 |  |
| CO/C=C(/C(=O)OC)c1cccc(C)c1CO/N=C(\C)c1ccc(OC(F)(F)F)cc1Cl [compound 463] | 6 | 0 | 3 | 0 |  |
| CO/N=C(/C(=O)OC)c1cccc(C)c1CO/N=C(\C)c1cccc(OC(F)(F)F)c1 [Ex. 28] |  |  |  |  | PHAKPA (F129L) Disease level (%), P2 at 16 ppm ([3]; 16 ppm): 30%; % PHAKPA (F129L) Disease level, P2 at 16 ppm [3, 10]: 0%; PHAKPA (F129L) Disease level (%), P6 at 16 ppm [2, 9]: 18%; % PHAKPA (F129L) Disease level, P6 at 16 ppm [2, 11]: 0% |
| CNC(=O)/C(=N/OC)c1cccc(C)c1CO/N=C(\C)c1ccc(-c2ccccc2)cc1C(F)(F)F [compound 413] | 40 | 15 | 33 | 15 |  |
| CNC(=O)/C(=N/OC)c1cccc(C)c1CO/N=C(\C)c1ccc(-c2ccc(F)cc2)cc1C(F)(F)F [compound 426] | 7 | 1 | 27 | 10 |  |
| CNC(=O)/C(=N/OC)c1cccc(C)c1CO/N=C(\C)c1ccc(OC)cc1OC(F)(F)F [compound 337] | 9 | 0 | 13 | 1 |  |
| CO/N=C(/C(=O)OC)c1cccc(C)c1CO/N=C(\C)c1c(F)ccc(C(F)(F)F)c1F [compound 156] |  |  |  |  | % PHAKPA (F129L) Disease level, P2 at 4 ppm [3, 12]: 27%; % PHAKPA (F129L) Disease level, P2 at 16 ppm [3, 10]: 0%; % PHAKPA (F129L) Disease level, P6 at 4 ppm [2, 13]: 47%; % PHAKPA (F129L) Disease level, P6 at 16 ppm [2, 11]: 3% |
| CO/N=C(/C(=O)OC)c1cccc(C)c1CO/N=C(\C)c1ccccc1F [Ex. 1, Methyl (2E)-2-[2-[[(E)-3-(2-fluorophenyl)ethylideneamino]oxymethyl]-3-methyl-phenyl]-2-methoxyimino-acetate] |  |  |  |  | PHAKPA (F129L) Disease level (%), P2 at 16 ppm ([3]; 16 ppm): 28%; % PHAKPA (F129L) Disease level, P2 at 4 ppm [3, 12]: 80%; % PHAKPA (F129L) Disease level, P2 at 16 ppm [3, 10]: 27%; PHAKPA (F129L) Disease level (%), P6 at 16 ppm [2, 9]: 47%; % PHAKPA (F129L) Disease level, P6 at 4 ppm [2, 13]: 90%; % PHAKPA (F129L) Disease level, P6 at 16 ppm [2, 11]: 56% |
| CNC(=O)/C(=N/OC)c1ccccc1CO/N=C(\C)c1cc(F)ccc1F [reference compound] |  |  |  |  | PHAKPA (F129L) Disease level (%), P2 at 16 ppm ([3]; 16 ppm): 1%; PHAKPA (F129L) Disease level (%), P6 at 16 ppm [2, 9]: 22% |
| CO/N=C(/C(=O)OC)c1cccc(C)c1CO/N=C(\C)c1cccc(C)c1 [Ex. 76] |  |  |  |  | PHAKPA (F129L) Disease level (%), P6 at 16 ppm ([2]; P6 at 16 ppm, untreated 75%): 4%; PHAKPA (F129L) Disease level (%), P6 at 16 ppm [2, 9]: 0% |
| CON=C(C)c1ccc(C(C)=NOCc2c(C)cccc2C(=NOC)C(=O)OC)c(OC(F)(F)F)c1 [compound 418] | 70 | 33 | 73 | 57 |  |
| CNC(=O)/C(=N/OC)c1cccc(C)c1CO/N=C(\C)c1cc(F)ccc1F [Ex. 131] |  |  |  |  | PHAKPA (F129L) Disease level (%), P2 at 16 ppm ([3]; 16 ppm): 0%; % PHAKPA (F129L) Disease level, P2 at 4 ppm [3, 12]: 0%; % PHAKPA (F129L) Disease level, P2 at 16 ppm [3, 10]: 0%; PHAKPA (F129L) Disease level (%), P6 at 16 ppm [2, 9]: 0%; % PHAKPA (F129L) Disease level, P6 at 4 ppm [2, 13]: 2%; % PHAKPA (F129L) Disease level, P6 at 16 ppm [2, 11]: 0% |
| CNC(=O)/C(=N/OC)c1cccc(C)c1CO/N=C(\C)c1ccc(Cl)c(F)c1OC(F)(F)F [compound 449] | 33 | 10 | 57 | 9 |  |
| COC=C(C(=O)OC)c1cccc(C)c1CON=C(C)c1cc(F)c(F)cc1CC(F)(F)F [compound 405] | 97 | 27 | 70 | 27 |  |

— US20230172205A1 (priority 2020, published 2023)
